Test results published in patent US9512120B2, “Microbicidally active imidazopyridine derivatives” (Syngenta Participations AG, priority 2013, dated 2016).

Columns and labels:
[1] = tested on: Thanatephorus cucumeris (Rhizoctonia solani); test: Thanatephorus cucumeris (Rhizoctonia solani) / liquid culture (foot rot, damping-off); type: cell-based; details: PDB, 24° C., 3-4 days after application, read-out: control of Thanatephorus cucumeris (inhibition of growth, photometric)
Summary of the method: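 Mycelial fragments in potato dextrose broth exposed to test compounds at 200 ppm (from DMSO solution), incubated at 24° C. Growth inhibition read photometrically 3-4 days after application.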

[2] = tested on: Phaeosphaeria nodorum (Septoria nodorum); test: Phaeosphaeria nodorum (Septoria nodorum) / wheat / leaf disc preventative (glume blotch); type: in vivo; details: Parastagonospora nodorum, foliar, wheat leaf segments cv Kanzler, inoculated 2 days after application, assessed 5-7 days after application, read-out: control of Phaeosphaeria nodorum (percent disease control compared to untreated)
Summary of the method: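 Wheat leaf segments (cv Kanzler) on agar sprayed with compound at 200 ppm, inoculated with spores 2 days later. Incubated at 20° C., 75% relative humidity, 12/12 h light/dark; percent disease control versus untreated scored 5-7 days after application.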

[3] = tested on: Gaeumannomyces graminis; test: Gaeumannomyces graminis / liquid culture (take-all of cereals); type: cell-based; details: PDB, 24° C., 4-5 days after application, read-out: control of Gaeumannomyces graminis (inhibition of growth, photometric)
Summary of the method: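 Mycelial fragments in potato dextrose broth were exposed to compound from DMSO at 200 ppm in microtiter plates. Incubation at 24 °C; growth inhibition read photometrically 4-5 days after application.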

[4] = tested on: Blumeria graminis f. Sp. Tritici (Erysiphe graminis f. Sp. Tritici); test: Blumeria graminis f. sp. tritici / wheat / leaf disc preventative (powdery mildew on wheat); type: in vivo; details: foliar, wheat leaf segments cv. Kanzler, inoculated 1 day after application, assessed 6-8 days after application, read-out: control of Blumeria graminis (percent disease control compared to untreated)
Summary of the method: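 Wheat leaf segments (cv. Kanzler) on agar sprayed with formulated compound at 200 ppm, inoculated with powdery mildew 1 day later. Held at 20 °C, 60% RH, 24 h dark then 12 h/12 h light; percent disease control versus untreated scored 6-8 days after application.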

[5] = tested on: Botryotinia fuckeliana (Botrytis cinerea); test: Botryotinia fuckeliana (Botrytis cinerea) / liquid culture (gray mould); type: cell-based; details: Vogels broth, 24° C., 3-4 days after application, read-out: control of Botryotinia fuckeliana (inhibition of growth, photometric)
Summary of the method: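 Botrytis cinerea conidia in Vogels broth were added to test compound applied from DMSO at 200 ppm. Incubation at 24 °C; growth inhibition read photometrically 3-4 days after application.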

[6] = tested on: Puccinia recondita f. sp. Tritici; test: Puccinia recondita f. sp. tritici / wheat / leaf disc preventative (brown rust); type: in vivo; details: foliar, wheat leaf segments cv Kanzler, inoculated 1 day after application, assessed 7-9 days after application, read-out: control of Puccinia recondita f. sp. Tritici (percent disease control compared to untreated)
Summary of the method: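 Leaf segments of wheat cv Kanzler on agar were sprayed with formulated compound at 200 ppm and inoculated with spores 1 day later. Incubation was at 19° C, 75% relative humidity and 12/12 h light/dark. Activity was scored 7-9 days after application as percent disease control versus untreated.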

[7] = tested on: Pyrenophora teres; test: Pyrenophora teres / barley / leaf disc preventative (net blotch); type: in vivo; details: foliar, barley leaf segments cv Hasso, inoculated two days after application, assessed 5-7 days after application, read-out: control of Pyrenophora teres (disease control compared to untreated)
Summary of the method: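 Barley cv Hasso leaf segments on agar sprayed with compound at 200 ppm, inoculated with spores two days later. Kept at 20 °C, 65% RH, 12/12 h light; disease control versus untreated scored 5-7 days after application.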

[8] = tested on: Monographella nivalis (Microdochium nivale); test: Monographella nivalis (Microdochium nivale) / liquid culture (foot rot cereals); type: cell-based; details: PDB, 24° C., 4-5 days after application, read-out: control of Monographella nivalis (inhibition of growth, photometric)
Summary of the method: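 Cryostored conidia in potato dextrose broth were added to test compound dispensed from DMSO at 200 ppm. Plates were kept at 24° C, and growth inhibition was read photometrically 4-5 days after application.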

CCn1c(-n2ncnc2N)nc2cncc(-c3cccnc3F)c21 [Compound 89, 2-[1-ethyl-7-(2-fluoropyridin-3-yl)imidazo[4,5-c]pyridin-2-yl]-1,2,4-triazol-3-amine]
≥ 80%: inhibition at 20 ppm [1] | pest or weed control at 200 ppm [2] | inhibition at 20 ppm [3] | pest or weed control at 200 ppm [4] | inhibition at 20 ppm [5] | pest or weed control at 200 ppm [6] | pest or weed control at 200 ppm [7] | inhibition at 20 ppm [8]

CCn1c(-n2ncnc2N)nc2cncc(-c3ccc(F)c(F)c3F)c21 [Compound 86, 2-[1-ethyl-7-(2,3,4-trifluorophenyl)imidazo[4,5-c]pyridin-2-yl]-1,2,4-triazol-3-amine]
≥ 80%: inhibition at 20 ppm [1] | pest or weed control at 200 ppm [2] | inhibition at 20 ppm [3] | pest or weed control at 200 ppm [4] | inhibition at 20 ppm [5] | pest or weed control at 200 ppm [6] | pest or weed control at 200 ppm [7] | inhibition at 20 ppm [8]

CCCn1c(-n2ncnc2N)nc2cncc(CC)c21 [Compound 174, 2-(7-ethyl-1-propyl-imidazo[4,5-c]pyridin-2-yl)-1,2,4-triazol-3-amine]
≥ 80%: inhibition at 20 ppm [1] | pest or weed control at 200 ppm [2] | inhibition at 20 ppm [3] | pest or weed control at 200 ppm [4] | inhibition at 20 ppm [5] | pest or weed control at 200 ppm [6] | pest or weed control at 200 ppm [7] | inhibition at 20 ppm [8]

CCCn1c(-n2ncnc2N)nc2cncc(C)c21 [Compound 173, 2-(7-methyl-1-propyl-imidazo[4,5-c]pyridin-2-yl)-1,2,4-triazol-3-amine]
≥ 80%: inhibition at 20 ppm [1] | pest or weed control at 200 ppm [2] | inhibition at 20 ppm [3] | pest or weed control at 200 ppm [4] | inhibition at 20 ppm [5] | pest or weed control at 200 ppm [6] | pest or weed control at 200 ppm [7] | inhibition at 20 ppm [8]

CCn1c(-n2ncnc2N)nc2cncc(C(C)=O)c21 [Compound 75, 1-[2-(5-amino-1,2,4-triazol-1-yl)-1-ethylimidazo[4,5-c]pyridin-7-yl]ethanone]
≥ 80%: inhibition at 20 ppm [1] | pest or weed control at 200 ppm [2] | inhibition at 20 ppm [3] | pest or weed control at 200 ppm [4] | inhibition at 20 ppm [5] | pest or weed control at 200 ppm [6] | pest or weed control at 200 ppm [7] | inhibition at 20 ppm [8]

CCc1cncc2nc(-n3ncnc3N)n(CC)c12 [Compound 23, 2-(1,7-diethylimidazo[4,5-c]pyridin-2-yl)-1,2,4-triazol-3-amine]
≥ 80%: inhibition at 20 ppm [1] | pest or weed control at 200 ppm [2] | inhibition at 20 ppm [3] | pest or weed control at 200 ppm [4] | inhibition at 20 ppm [5] | pest or weed control at 200 ppm [6] | pest or weed control at 200 ppm [7] | inhibition at 20 ppm [8]

CCn1c(-n2ncnc2N)nc2cncc(-c3cccc(OC)c3F)c21 [Compound 93, 2-[1-ethyl-7-(2-fluoro-3-methoxyphenyl)imidazo[4,5-c]pyridin-2-yl]-1,2,4-triazol-3-amine]
≥ 80%: inhibition at 20 ppm [1] | pest or weed control at 200 ppm [2] | inhibition at 20 ppm [3] | pest or weed control at 200 ppm [4] | inhibition at 20 ppm [5] | pest or weed control at 200 ppm [6] | pest or weed control at 200 ppm [7] | inhibition at 20 ppm [8]

CCn1c(-n2ncnc2N)nc2cncc(-c3cccc(Cl)c3F)c21 [Compound 90, 2-[7-(3-chloro-2-fluorophenyl)-1-ethylimidazo[4,5-c]pyridin-2-yl]-1,2,4-triazol-3-amine]
≥ 80%: inhibition at 20 ppm [1] | pest or weed control at 200 ppm [2] | inhibition at 20 ppm [3] | pest or weed control at 200 ppm [4] | inhibition at 20 ppm [5] | pest or weed control at 200 ppm [6] | pest or weed control at 200 ppm [7] | inhibition at 20 ppm [8]

CCn1c(-n2ncnc2N)nc2cncc(-c3cccc(F)c3F)c21 [Compound 102, 2-[7-(2,3-difluorophenyl)-1-ethylimidazo[4,5-c]pyridin-2-yl]-1,2,4-triazol-3-amine]
≥ 80%: inhibition at 20 ppm [1] | pest or weed control at 200 ppm [2] | inhibition at 20 ppm [3] | pest or weed control at 200 ppm [4] | inhibition at 20 ppm [5] | pest or weed control at 200 ppm [6] | pest or weed control at 200 ppm [7] | inhibition at 20 ppm [8]

CCn1c(-n2ncnc2N)nc2cncc(/C(C)=N\OC/C=C(\C)Cl)c21 [Compound 153, 2-[7-[(Z)-N-[(E)-3-chlorobut-2-enoxy]-C-methyl-carbonimidoyl]-1-ethyl-imidazo[4,5-c]pyridin-2-yl]-1,2,4-triazol-3-amine]
≥ 80%: inhibition at 20 ppm [1] | pest or weed control at 200 ppm [2] | inhibition at 20 ppm [3] | pest or weed control at 200 ppm [4] | inhibition at 20 ppm [5] | pest or weed control at 200 ppm [6] | pest or weed control at 200 ppm [7] | inhibition at 20 ppm [8]

CCCn1c(-n2ncnc2N)nc2cnccc21 [Compound 13, 2-(1-propylimidazo[4,5-c]pyridin-2-yl)-1,2,4-triazol-3-amine]
≥ 80%: inhibition at 20 ppm [1] | pest or weed control at 200 ppm [2] | inhibition at 20 ppm [3] | pest or weed control at 200 ppm [4] | inhibition at 20 ppm [5] | pest or weed control at 200 ppm [6] | pest or weed control at 200 ppm [7] | inhibition at 20 ppm [8]

CC=Cc1cncc2nc(-n3ncnc3N)n(CC)c12 [Compound 67, 2-(1-ethyl-7-prop-1-enylimidazo[4,5-c]pyridin-2-yl)-1,2,4-triazol-3-amine]
≥ 80%: inhibition at 20 ppm [1] | pest or weed control at 200 ppm [2] | inhibition at 20 ppm [3] | pest or weed control at 200 ppm [4] | inhibition at 20 ppm [5] | pest or weed control at 200 ppm [6] | pest or weed control at 200 ppm [7] | inhibition at 20 ppm [8]
